In patent publication US8202893B2, “Cannabinergic lipid ligands” (University of Connecticut, priority 2004, dated 2012):
Read-outs that look alike come from different tables or passages of the source.

Experiments:
Mag-lipase = biological target: T1, Mag-lipase (Rattus norvegicus, UniProt Q8R431); assay: Inhibition of MAG-lipase: 2-AG metabolism to arachidonic acid; assay type: biochemical; conditions: 20 min, 30 nmoles compound with 30 nmoles 2-AG, 30 μg enzyme, 300 μL
T1 construct: supernatant from final spin in the anandamide amidase preparation; from tissue; host or cells: supernatant (soluble fraction) of the anandamide amidase preparation, rat brain by the cited procedure
T1 sequence (Q8R431 1-303): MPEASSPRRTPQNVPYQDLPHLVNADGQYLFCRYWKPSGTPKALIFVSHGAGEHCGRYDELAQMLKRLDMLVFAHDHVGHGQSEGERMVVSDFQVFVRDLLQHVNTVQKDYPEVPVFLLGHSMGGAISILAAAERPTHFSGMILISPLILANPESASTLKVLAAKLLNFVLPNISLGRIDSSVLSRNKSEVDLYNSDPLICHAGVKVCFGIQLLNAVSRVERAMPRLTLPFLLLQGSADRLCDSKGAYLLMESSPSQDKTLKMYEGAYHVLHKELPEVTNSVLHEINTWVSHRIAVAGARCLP
Protocol: All compound solutions were made to a concentration of 10 mM in DMSO. Three tests were performed on each compound: hydrolysis, to determine the stability of the compound in assay conditions without the enzyme present; metabolism, to determine the stability of the compound with the enzyme present; and inhibition of 2-Arachidonoyl glycerol (native substrate) metabolism to arachidonic acid.
The inhibition of 2-AG metabolism was measured by mixing 30 nmoles of the compound with 30 nmoles 2-AG, and 30 μg enzyme preparation in TME buffer (final volume of 300 μL). Again the reaction mixture was treated in the same manner as described above and the concentrations of 2-AG and AA were calculated using external standards. Percent inhibition was calculated using the following equation: % Inhib.=(AA20-AA0)i/(AA20-AA0)s where (AA20-AA0)i is the amount of arachidonic acid formed over 20 minutes from 2-AG with the inhibitor present and (AA20-AA0)s is the amount of arachidonic acid formed over 20 minutes from 2-AG when the inhibitor is not present. […] The reaction mixtures were treated as described above and the amount of AA formed was calculated. The software package GraphPad Prism was utilized to calculate IC50 and Ki. HPLC Conditions:
Chromatographic separation was achieved using an Ultrasphere ODS Pre-column (4.6×45 mm) from Beckman. Hardware consisted of a Waters Millennium HPLC system with a 20 μL injection loop. The mobile phase consisted of 8.5% o-phosphoric acid:acetonitrile (3:7), run isocratically at a rate of 1 mL/min and detection at 204 nm. The total run time was 8 minutes with 2-AG eluting at 3.0 minutes and AA at 6.0 minutes.

anandamide transporter = assay: [3H]Anandamide transporter competition assay; assay type: cell-based; conditions: human CCF-STG1 astrocytoma cells, 10 nM [3H]anandamide
Protocol: Human CCF-STG1 astrocytoma cells (American Type Culture collection) were grown in RPMI1640 culture medium containing 2 mM L-glutamine, 4.5 g/L glucose, 10 mM HEPES, and 1.0 mM sodium pyruvate, 10% FBS, cultures at 37° C. with 5% CO2. For standard competition assays, confluent cells grown in 24-well plates were rinsed and preincubated for 10 min at 37° C. in assay buffer (Hank's Balanced Salt Solution containing 0.1% DMSO, 10 mM HEPES) plus test compounds (at their final concentrations of 0.01-100 μM). After having discarded the preincubation media, the cells were incubated for 4 min in 0.2 ml assay buffer containing 10 nM [^3H] anandamide (137.6 Ci/mmol, New England Nuclear) plus test compounds. Reactions were stopped by removing the incubation media and rinsing the cells three times with 0.5 ml of ice-cold HBSS buffer containing 0.1% fatty acid-free Bovine Serum Albumin (sigma). Radioactive material in Triton X-100 cell extracts was measured by liquid scintillation counting. A minimum of three independent experiments conducted in six replicates was used to define the concentration needed to produce half-maximal inhibition (IC50) for each compound. IC50 values were obtained by nonlinear regression fitting of the data, using the PRIZM software package. Data are expressed as mean±SEM.

Row | Compound | inhibition at 100 µM (Mag-lipase) [%] | IC50 (anandamide transporter; read-out: IC50 AT inhibition) [µM] | IC50 (anandamide transporter; read-out: IC50 (AT inhib.)) [µM] | Mag-Lipase % Inhibition (Mag-lipase) [%]
1 | O=C(CCC/C=C\C/C=C\C/C=C\C/C=C\CCCCc1ccccc1)NCC1CC1 [Compound A1] | 20.5 |  |  | 
2 | O=C(CCC/C=C\C/C=C\C/C=C\C/C=C\CCc1ccccc1)NCC1CC1 [Compound A2] | 37.5 |  |  | 
3 | O=C(CCC/C=C\C/C=C\C/C=C\C/C=C\CCc1ccccc1)Nc1ccc(O)cc1 [Compound A3] | 16.7 | 9.1 |  | 
4 | O=C(CCC/C=C\C/C=C\C/C=C\C/C=C\CCc1ccccc1)Nc1nccs1 [Compound A4] | 9.2 |  |  | 
5 | [N-]=[N+]=NCCCC/C=C\C/C=C\C/C=C\C/C=C\CCCC(=O)NCC1CC1 [Compound A6] | 20.7 |  |  | 
6 | COc1cc(CNC(=O)CCC/C=C\C/C=C\C/C=C\C/C=C\CCCCN=[N+]=[N-])ccc1O [Compound A7] | 13.7 |  |  | 
7 | O=C(CCC/C=C\C/C=C\C/C=C\C/C=C\CCCCCBr)NC1CC1 [Compound A18] | 22.5 | 6.7 |  | 
8 | CCCCCC=CCC=CCC=CCC=CCCCCOC(=O)NCC(C)O (centres unmarked) [Compound B3] |  |  | 1.5 | 14.3
9 | CCCCC/C=C\C/C=C\C/C=C\C/C=C\CCCCNC(=O)NC[C@H](C)O [Compound B12] | 11.1 |  | 1.78 | 
10 | CCCCC/C=C\C/C=C\CCCCCCCCOC(=O)NC[C@H](C)O [Compound B14] |  |  | 7.21 | 25.8
11 | CC/C=C\C/C=C\C/C=C\CCCCCCCCOC(=O)NC[C@H](C)O [Compound B15] |  |  | 4.5 | 24.6
